What follows are molecules tested on antiserum raised to Immunogen I (assay: Competitive ELISA with IgG fraction of antiserum raised to Immunogen I (second bleed) and hapten 1-HRP detecting agent). Conditions: Table 1; B = absorbance at 450 nm at x ng/ml standard, B0 at 0 ng/ml; second bleed.
Format: binding, sheep
Protocol: (§1) The wells of an enhanced binding 96 well polystyrene microtiter plate were coated with IgG fraction of antiserum raised to Immunogen I or II, diluted in 10 mM Tris, pH 8.5 (125 μl/well). The appropriate antibody coating dilution was determined using standard ELISA checkerboard techniques. The plate was incubated overnight at 4° C., washed 4 times over 10 minutes with Tris buffered saline containing Tween20 (TBST) and tapped dry. Standard solutions (UR-144 N-pentanoic acid) were applied at 0, 0.625, 1.25, 2.5, 5, 10, 20 and 40 ng/ml and 50 μl of each was added to the appropriate wells. 75 μl of conjugate (appropriate hapten-HRP) diluted in Tris buffer (pH 7.2) containing EDTA, D-mannitol, sucrose, thimerosol and BSA, was added to each of the wells. The appropriate dilution of conjugate was also determined using standard ELISA checkerboard techniques. The plate was incubated at 25° C. for 1 hour. Excess unbound conjugate was removed by washing 6 times over a ten minute period with TBST. 125 μl of tetramethylbenzidine (TMB) substrate solution was added to each well of the plate that was then incubated for 20 minutes in the dark at room temperature. The reaction was terminated by addition of 125 μl of 0.2 M H2SO4 to each well. The absorbance was then measured at 450 nm using a microtiter plate reader. The data are inputted to a computer program called ‘KC Junior’ (Biotek). It gives a 4 parameter fit curve and allows the calculation of concentrations between the standard runs. This program is used to calculate the IC50 values by dividing the 0 ng/ml optical density (OD) value by 2 and obtaining the concentration value from the curve for this OD.
(§2) Cross-reactivity was calculated according to the following formula: % CR=IC50, UR-144 N-pentanoic acid/IC50, cross reactant×100 Where % CR is the percentage cross-reactivity, IC50, UR-144 N-pentanoic acid is the concentration of UR-144 N-pentanoic acid that causes 50% displacement of signal and IC50, cross reactant is the concentration of the cannabinoid/metabolite/selected molecule that causes 50% displacement of signal.
In order to determine the specificity of the competitive ELISAs, standard solutions of a range of structurally related synthetic cannabinoids and their metabolites were prepared in TBST (Tris-Buffered Saline and Tween 20). Using the calibration curves generated and employing a single level of cross reactants, these were used to determine the cross-reactivity of the immunoassays with these substances.

Structure (SMILES)	% B/BO [%]
CC1(C)C(C(=O)c2cn(CCCCCO)c3ccccc23)C1(C)C [UR-144 N-pentanol]	13.0
CC1(C)C(C(=O)c2cn(CCCCC(=O)O)c3ccccc23)C1(C)C [UR-144 N-pentanoic acid]	16.8

Same assay, conditions: Table 1; CR based on 100% for UR-144 N-pentanoic acid

Structure (SMILES)	% Cross-reactivity (CR) [%]
CC1(C)C(C(=O)c2cn(CCCCCO)c3ccccc23)C1(C)C [UR-144 N-pentanol]	109.2
CC1(C)C(C(=O)c2cn(CCCCC(=O)O)c3ccccc23)C1(C)C [UR-144 N-pentanoic acid]	100

Same assay, conditions: Table 1; standard concentration which produces 50% B/B0; second bleed

Structure (SMILES)	IC50 [ng/mL]
CC1(C)C(C(=O)c2cn(CCCCCO)c3ccccc23)C1(C)C [UR-144 N-pentanol]	3.191
CC1(C)C(C(=O)c2cn(CCCCC(=O)O)c3ccccc23)C1(C)C [UR-144 N-pentanoic acid]	3.484

Same assay, conditions: Table 2; cross-reactant at 100 ng/ml (single level)

Structure (SMILES)	% B/BO [%]
CCCCCn1cc(C(=O)c2ccc(C)c3ccccc23)c2ccccc21 [JWH-122]	97.01
CN1CCCCC1Cn1cc(C(=O)c2cc([N+](=O)[O-])ccc2I)c2ccccc21 (stereo not shown) [AM1241]	77.96
O=C(c1cccc2ccccc12)c1cn(CCN2CCOCC2)c2ccccc12 [JWH-200]	86.38
COc1ccccc1CC(=O)c1cn(CCC2CCCCC2)c2ccccc12 [RCS 8]	88.15
CCCCn1cc(C(=O)c2cccc3ccccc23)c2ccccc21 [JWH-073]	90.44
CCCCCn1cc(C(=O)c2ccc(CC)c3ccccc23)c2ccccc21 [JWH-210]	95.89
O=C(O)CCCCn1cc(C(=O)c2cccc3ccccc23)c2ccccc21 [JWH-018 N (carboxybutyl) metabolite]	89.14
CN1CCCCC1Cn1cc(C(=O)c2cccc3ccccc23)c2ccccc21 (stereo not shown) [AM1220]	73.59
CCCCCCn1cc(C(=O)c2cccc3ccccc23)c2ccccc21 [JWH-019]	87.30
CCCCCn1cc(C(=O)c2cccc3ccccc23)c2ccccc21 [JWH-018]	87.89

Same assay, conditions: Table 2; cross-reactant tested at 100 ng/ml

Structure (SMILES)	IC50 [ng/mL]
CCCCCn1cc(C(=O)c2ccc(C)c3ccccc23)c2ccccc21 [JWH-122]	>100
CN1CCCCC1Cn1cc(C(=O)c2cc([N+](=O)[O-])ccc2I)c2ccccc21 (stereo not shown) [AM1241]	>100
O=C(c1cccc2ccccc12)c1cn(CCN2CCOCC2)c2ccccc12 [JWH-200]	>100
COc1ccccc1CC(=O)c1cn(CCC2CCCCC2)c2ccccc12 [RCS 8]	>100
CCCCn1cc(C(=O)c2cccc3ccccc23)c2ccccc21 [JWH-073]	>100
CCCCCn1cc(C(=O)c2ccc(CC)c3ccccc23)c2ccccc21 [JWH-210]	>100
O=C(O)CCCCn1cc(C(=O)c2cccc3ccccc23)c2ccccc21 [JWH-018 N (carboxybutyl) metabolite]	>100
CN1CCCCC1Cn1cc(C(=O)c2cccc3ccccc23)c2ccccc21 (stereo not shown) [AM1220]	>100
CCCCCCn1cc(C(=O)c2cccc3ccccc23)c2ccccc21 [JWH-019]	>100
CCCCCn1cc(C(=O)c2cccc3ccccc23)c2ccccc21 [JWH-018]	>100

Same assay, conditions: Table 2; cross-reactant tested at 100 ng/ml; relative to UR-144 N-pentanoic acid

Structure (SMILES)	% Cross-reactivity (CR) [%]
CCCCCn1cc(C(=O)c2ccc(C)c3ccccc23)c2ccccc21 [JWH-122]	<3.0
CN1CCCCC1Cn1cc(C(=O)c2cc([N+](=O)[O-])ccc2I)c2ccccc21 (stereo not shown) [AM1241]	<3.0
O=C(c1cccc2ccccc12)c1cn(CCN2CCOCC2)c2ccccc12 [JWH-200]	<3.0
COc1ccccc1CC(=O)c1cn(CCC2CCCCC2)c2ccccc12 [RCS 8]	<3.0
CCCCn1cc(C(=O)c2cccc3ccccc23)c2ccccc21 [JWH-073]	<3.0
CCCCCn1cc(C(=O)c2ccc(CC)c3ccccc23)c2ccccc21 [JWH-210]	<3.0
O=C(O)CCCCn1cc(C(=O)c2cccc3ccccc23)c2ccccc21 [JWH-018 N (carboxybutyl) metabolite]	<3.0
CN1CCCCC1Cn1cc(C(=O)c2cccc3ccccc23)c2ccccc21 (stereo not shown) [AM1220]	<3.0
CCCCCCn1cc(C(=O)c2cccc3ccccc23)c2ccccc21 [JWH-019]	<3.0
CCCCCn1cc(C(=O)c2cccc3ccccc23)c2ccccc21 [JWH-018]	<3.0

These molecules were tested on antiserum raised to Immunogen I (assay: UR144/XLR11 Synthetic Cannabinoids (Spice) ELISA, antiserum raised to Immunogen I (third bleed)). Conditions: Table 4, negative response at this concentration.
Format: binding, sheep
Protocol: as §1, §2
A further assay was carried out in accordance with the protocol described in Example 9 using Immunogen I.

Structure (SMILES)	Concentration of compounds that elicit a negative response [ng/mL]
CCCCCn1cc(C(=O)c2ccc(C)c3ccccc23)c2ccccc21 [JWH-122]	100
CN1CCCCC1Cn1cc(C(=O)c2cc([N+](=O)[O-])ccc2I)c2ccccc21 (stereo not shown) [AM1241]	100
O=C(O)CCCn1cc(-c2cccc3ccccc23)c2ccccc21 [JWH-073 N-butanoic acid metabolite, 4-(3-(1-naphthyl)-1H-indol-1-yl)butanoic acid]	100
O=C(c1cccc2ccccc12)c1cn(CCN2CCOCC2)c2ccccc12 [JWH-200]	100
COc1ccccc1CC(=O)c1cn(CCC2CCCCC2)c2ccccc12 [RCS 8]	100
CCCCn1cc(C(=O)c2cccc3ccccc23)c2ccccc21 [JWH-073]	100
CCCCCCn1cc(C(=O)c2cccc3ccccc23)c2cc(O)ccc21 [JWH-019 5-hydroxyindole metabolite]	100
O=C(NC12CC3CC(CC(C3)C1)C2)c1cn(CCCCCF)c2ccccc12 [STS135]	100
COc1ccccc1CC(=O)c1cn(CCCCCC(=O)O)c2ccccc12 [JWH-250 N-(5-carboxypentyl) metabolite]	100
CCCCn1cc(C(=O)c2cccc3ccccc23)c2c(O)cccc21 [4-OH JWH-073]	100
CC(O)CCCn1cc(C(=O)c2cccc3ccccc23)c2ccccc21 (stereo not shown) [JWH-018 N-(4-hydroxypentyl) metabolite, 1-(4-hydroxypentyl)-1H-indol-3-yl(napthalen-1-yl)-methanone]	100
COc1ccc(C(=O)c2cn(CCCCCO)c3ccccc23)c2ccccc12 [JWH-081 N-(5-hydroxypentyl) metabolite]	100
O=C(NC12CC3CC(CC(C3)C1)C2)c1nn(CCCCCF)c2ccccc12 [AKB48 N (5-fluoropentyl) analog]	100
COc1ccccc1CC(=O)c1cn(CCCCCO)c2ccccc12 [JWH-250 N-(5-hydroxypentyl) metabolite]	100
O=C(O)CCCCn1cc(C(=O)C23CC4CC(CC(C4)C2)C3)c2ccccc21 [AB001N-pentanoic acid]	100
CCCCCn1cc(C(=O)NC23CC4CC(CC(C4)C2)C3)c2ccccc21 [JWH-018 adamantyl carboxamide]	10
CCCCCn1cc(C(=O)c2cccc3ccccc23)c2c(O)cccc21 [4-OH JWH-018]	100
CCCCn1c(O)c(C(=O)c2cccc3ccccc23)c2ccccc21 [2-OH JWH-073]	100
CCCCn1cc(C(=O)c2cccc3ccccc23)c2cccc(O)c21 [7-OH JWH-073]	100
CCCCn1cc(C(=O)c2cccc3ccccc23)c2ccc(O)cc21 [6-OH JWH-073]	100
CC(O)CCn1cc(C(=O)c2cccc3ccccc23)c2ccccc21 (stereo not shown) [JWH-073 N-(3-hydroxybutyl) metabolite, 1-(3-hydroxybutyl)-1H-indol-3-yl(napthalen-1-yl)methanone]	100
O=C(O)CCCCn1cc(-c2cccc3ccccc23)c2ccccc21 [JWH-018 N-pentanoic acid metabolite, 5-(3-(1-naphthyl)-1H-indol-1-yl)pentanoic acid]	100
CCCCCn1cc(C(=O)C23CC4CC(CC(C4)C2)C3)c2ccccc21 [JWH-018 adamantyl]	100
CCCCCn1cc(C(=O)c2cccc3ccccc23)c2cccc(O)c21 [7-OH JWH-018]	100
CCCCn1cc(C(=O)c2cccc3ccccc23)c2cc(O)ccc21 [5-OH JWH-073]	100
O=C(c1cccc2ccccc12)c1cn(CCCCO)c2ccccc12 [JWH-073 N-(4-hydroxybutyl) metabolite, 1-(4-hydroxybutyl)-1H-indol-3-yl(naphthalen-1-yl)methanone]	100
O=C(c1cccc2ccccc12)c1c[nH]c2ccccc12 [N-desalkyl JWH-018, 3-(1-naphthoyl) indole]	100
O=C(c1cn(CCCCCO)c2ccccc12)C12CC3CC(CC(C3)C1)C2 [AB001 N-pentanol]	100
CCCCCn1c(O)c(C(=O)c2cccc3ccccc23)c2ccccc21 [2-OH JWH-018]	100

Same assay, conditions: Table 4, relative to UR144 N-Pentanoic Acid = 100

Structure (SMILES)	% Cross-Reactivity [%]
CC1(C)C(C(=O)c2cn(CCCCCO)c3ccccc23)C1(C)C [UR-144 N-pentanol]	110
CC(O)CCCn1cc(C(=O)C2C(C)(C)C2(C)C)c2ccccc21 (stereo not shown) [XLR11 N-(4-hydroxypentyl) metabolite]	2
CC1(C)C(C(=O)c2cn(CCCCC(=O)O)c3ccccc23)C1(C)C [UR-144 N-pentanoic acid]	100
C=C(C)C(C)(C)CC(=O)c1cn(CCCCCF)c2ccccc12 [XLR11 Degradant]	3
CC(O)CCCn1cc(C(=O)C2C(C)(C)C2(C)C)c2ccccc21 (stereo not shown) [UR144 N-(4-hydroxypentyl) metabolite]	107

Source: patent US9079964B2, “Immunoassay for cyclopropylindole based synthetic cannabinoids, metabolites and derivatives thereof” (Randox Laboratories Limited, priority 2013, dated 2015)
